Data set [1] has as its target T1, human α1A adrenergic receptor (Homo sapiens, UniProt P35348).
T1 construct: expressed in transfected cells; host or cells: HEK293 cells, pcDNA3.1(−), geneticin-selected
T1 sequence (P35348 1-466): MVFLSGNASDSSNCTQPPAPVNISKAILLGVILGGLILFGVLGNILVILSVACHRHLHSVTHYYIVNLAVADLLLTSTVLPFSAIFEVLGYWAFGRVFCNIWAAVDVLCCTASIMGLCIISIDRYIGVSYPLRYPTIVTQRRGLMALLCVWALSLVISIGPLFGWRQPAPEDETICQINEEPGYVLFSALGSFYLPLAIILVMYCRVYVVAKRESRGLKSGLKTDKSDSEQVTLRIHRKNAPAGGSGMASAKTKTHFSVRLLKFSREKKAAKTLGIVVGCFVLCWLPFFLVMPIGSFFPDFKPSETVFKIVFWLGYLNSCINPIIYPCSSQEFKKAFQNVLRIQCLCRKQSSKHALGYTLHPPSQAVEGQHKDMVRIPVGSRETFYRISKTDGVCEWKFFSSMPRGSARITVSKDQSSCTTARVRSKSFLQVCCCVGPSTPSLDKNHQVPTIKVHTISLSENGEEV
Description: Test example 4: human α1A adrenergic receptor agonist activity (Ca flux, Fura-2). The format is cell-based. The note with it: Test example 4, maximum response to norephinephrine taken as 100%; for Emax: read-out: α1A receptor I.A. How it is done: Human α1A adrenergic receptor agonist activity is determined by using HEK293 cells transfected with pcDNA3.1(−) (Invitrogen) to which human α1A gene has been inserted. These cells are cultured in a DMEM medium containing 10% fetal bovine serum, 400 μg/mL geneticin (Gibco BRL), 100 U/ml penicillin and 100 μg/ml streptomycin. […] After carrying out the loading for 30 minutes in a CO2 incubator, excess Fura-2AM is removed by washing the cells twice with the assay buffer. The cells obtained after the centrifuge is prepared to 5×10^6 cells/ml by using the assay buffer, and aliquoted into a 96-well UV plate (manufactured by Corning Inc.) to give a cell plate (80 μl/well). […] After the measurement for about 30 seconds, 20 μl of the test sample from the sample plate is added to the cell plate and the measurement is continued for another 270 seconds. Ca flux caused by the test compound is obtained from the peak height difference between the maximum value of fluorescence intensity ratio at 340 nm and 380 nm after the addition of the test compound and the fluorescence intensity ratio before the addition of the test compound. Maximum response to norephinephrine as a positive control is taken as 100%, and the maximum response ratio of each test compound is obtained as Intrinsic Activity [I.A. (%)].

Data set [2] concerns the target T2, human β3 adrenergic receptor (Homo sapiens, UniProt P13945).
T2 construct: used as a probe to obtain the full length human β3 gene from a human genomic library (Clonetech); expressed in transfected cells; host or cells: CHO (Chinese hamster ovary) cells, pcDNA3, geneticin-selected
Description: Test example 1-B: human β3 adrenergic receptor agonist activity (cAMP-Screen, 96-well). The format is cell-based. The note with it: for Emax: 0.5 h, read-out: β3 receptor I.A.; for pEC50: CHO cells with human β3 gene, cAMP. As for the experimental part: Human β3 adrenergic receptor agonist activity is determined using CHO (Chinese hamster ovary) cells transfected with pcDNA3 (Invitrogen) to which human β3 gene has been inserted. […] This human β3 cDNA fragment is used as a probe to obtain the full length human β3 gene from a human genomic library (Clonetech). The above cells are cultured in a Ham's F-12 medium containing 10% fetal bovine serum and 400 μg/mL geneticin (Invitrogen). After seeding these cells into a 96-well plate (2×10^4 cells/well) and culturing them for about 20 hours, they are allowed to stand in a serum-free Ham's F-12 medium (80 μL) for 15 minutes. The test compound is first dissolved in DMSO, serially diluted with Ham's F-12 comprising 100 mmol/L HEPES and 1 mmol/L isobutylmethylxanthine, and then 20 μL of the solution is added to the cells. After the cells are cultured for 30 minutes, the medium is removed, followed by addition of assay/lysis buffer (0.1 ml) included in cAMP-Screen Kit (manufactured by Applied Biosystems). The cells are incubated for 30 minutes at 37° C. The resulting cell lysate is determined to cAMP quantitation by using cAMP-Screen kit described above.

Data set [3] deals with T3, human β1 adrenergic receptor (Homo sapiens, UniProt P08588).
T3 construct: expressed in transfected cells; host or cells: CHO (Chinese hamster ovary) cells, pcDNA3
In words: Test example 2-B: human β1 adrenergic receptor agonist activity. The note with it: 0.5 h; read-out: β1 receptor I.A. It is filed as cell-based.

The target in data set [4] is T4, human β2 adrenergic receptor (Homo sapiens, UniProt P07550).
T4 construct: expressed in transfected cells; host or cells: CHO (Chinese hamster ovary) cells, pcDNA3
Description: Test example 3-B: human β2 adrenergic receptor agonist activity. The settings on record: read-out: β2 receptor I.A. The format is cell-based.

For data set [5], the system named is rat under pentobarbital anesthesia. In words: Test example 9: effect on blood pressure and heart rate of a rat under pentobarbital anesthesia. It is filed as in vivo. The settings on record: male SD rat, 3 mg/kg intravenous bolus; greatest change of mean blood pressure relative to before administration; mean ± standard deviation. How it is done:
After measuring blood pressure and heart rate of a rat under pentobarbital anesthesia, an effect of intravenous bolus administration of a test compound on blood pressure and heart rate can be determined. To a male SD rat (Japan SLC Inc.), sodium pentobarbital (Tokyo Chemical Industry Co., Ltd.) is intraperitoneally administered for induction of anesthesia (50 mg/kg). As maintenance anesthetics, sodium pentobarbital is subcutaneously administered (25 mg/kg). Left femoral vein is exposed and stripped, and then a polyethylene tube SP10 (connected to a three-way stopcock via ¼ vein needle) which has been filled with physiological saline is inserted and left in the vein.
Left medial femoral region is cut to expose and strip the femoral artery, and then a polyethylene tube (SP31, connected to a three-way stopcock via 22 G injection needle by TERUMO Corporation) which has been filled with heparin physiological saline is inserted and connected to a pressure transducer. Blood pressure is measured from the pressure transducer by using a modified pressure amplifier (AP-641 G, Nihon Kohden Corporation). Heart rate is measured by using the Heart rate Counter (AT-601 g, Nihon Kohden Corporation) while having the pulse wave of the blood pressure as a trigger. The blood pressure, mean blood pressure and heart rate are transmitted to the data recorder for recordation. In addition, the mean blood pressure is recorded using a modified pressure amplifier (AP-641 G) according to the equation of {diastolic blood pressure+(systolic blood pressure−diastolic blood pressure)/3}.
Blood pressure and heart rate measurement is started, and after confirming that each value remains almost constant, the test compound (3 mg/kg) is administered to the left femoral vein for 30 seconds. Specifically, the test compound with 3 mg/mL concentration is bolus administered at the administration dose of 1 mL/kg. Relative value (%) at each time point compared to the mean blood pressure and the heart rate before the administration is obtained for each individual. […]

Data set [6] concerns the target T2, human β3 adrenergic receptor. In words: Test example 1-A: human β3 adrenergic receptor agonist activity (cAMP EIA, 24-well). It is filed as cell-based. The settings on record: Table 3, maximum response to isoproterenol taken as 100%. As for the experimental part:
Human β3 adrenergic receptor agonist activity is determined using CHO (Chinese hamster ovary) cells transfected with pcDNA3 (Invitrogen) to which human β3 gene has been inserted. […] This human β3 cDNA fragment is used as a probe to obtain the full length human β3 gene from a human genomic library (Clonetech). The above cells are cultured in a Ham's F-12 medium containing 10% fetal bovine serum and 400 μg/mL geneticin (Invitrogen).

The subject of data set [7] is urinary bladder smooth muscle isolated from common marmoset. Description: Test example 7: relaxant activity on urinary bladder smooth muscle isolated from common marmoset. The note with it: strips contracted by 40 mmol/L KCl, papaverine 10^−4 mol/L relaxation = 100%.
Description: Specifically, a common marmoset (CLEA Japan, Inc.) is bled to exsanguinated death, and then the urinary bladder is taken out of the marmoset via laparotomy. […] A resting tension of 1 g is applied to the strips, which is then equilibrated for more than 30 minutes. […] The final concentration is 10^−9, 10^−8, 10^−7, 10^−8, 10^−5 and 10^−4 mol/L. Upon the completion of the relaxation response to the test compound at the highest concentration, papaverine with final concentration of 10^−4 mol/L is added and the maximum relaxation response is obtained for each strip. This relaxation response is taken as 100%, and the relaxation ratio (%) is obtained for the test compound at the concentrations of 10^−5 and 10^−4 mol/L.

From patent US8304443B2, “Indazole derivatives” (Asahi Kasei Pharma Corporation, priority 2008, dated 2012) come the findings set out here.

pEC50: −log10 of the molar value. Like-named read-outs stand apart in the source and are kept apart here.

T2 sequence (P13945 whole entry): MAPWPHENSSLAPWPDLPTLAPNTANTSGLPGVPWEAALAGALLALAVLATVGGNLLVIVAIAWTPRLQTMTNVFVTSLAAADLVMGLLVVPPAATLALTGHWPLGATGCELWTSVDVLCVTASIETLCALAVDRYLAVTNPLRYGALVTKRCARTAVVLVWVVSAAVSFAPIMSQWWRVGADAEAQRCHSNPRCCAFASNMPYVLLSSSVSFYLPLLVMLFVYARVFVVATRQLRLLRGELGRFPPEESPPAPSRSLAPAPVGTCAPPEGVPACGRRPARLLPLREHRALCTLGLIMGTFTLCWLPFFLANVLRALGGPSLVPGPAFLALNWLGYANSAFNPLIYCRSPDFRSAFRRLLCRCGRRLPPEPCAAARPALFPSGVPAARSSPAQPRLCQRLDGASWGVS
T4 sequence (P07550 whole entry): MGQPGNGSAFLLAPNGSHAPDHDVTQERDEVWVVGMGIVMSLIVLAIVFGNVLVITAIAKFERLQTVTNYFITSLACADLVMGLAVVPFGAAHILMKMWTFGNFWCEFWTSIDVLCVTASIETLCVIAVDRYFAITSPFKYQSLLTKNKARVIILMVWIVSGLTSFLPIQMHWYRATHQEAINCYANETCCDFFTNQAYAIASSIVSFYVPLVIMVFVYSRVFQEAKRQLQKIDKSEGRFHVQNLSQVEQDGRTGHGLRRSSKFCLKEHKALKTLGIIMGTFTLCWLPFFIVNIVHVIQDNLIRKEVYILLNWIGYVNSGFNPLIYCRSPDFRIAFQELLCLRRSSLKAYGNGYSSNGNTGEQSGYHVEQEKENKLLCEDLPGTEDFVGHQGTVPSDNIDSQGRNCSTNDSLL
T3 sequence (P08588 whole entry): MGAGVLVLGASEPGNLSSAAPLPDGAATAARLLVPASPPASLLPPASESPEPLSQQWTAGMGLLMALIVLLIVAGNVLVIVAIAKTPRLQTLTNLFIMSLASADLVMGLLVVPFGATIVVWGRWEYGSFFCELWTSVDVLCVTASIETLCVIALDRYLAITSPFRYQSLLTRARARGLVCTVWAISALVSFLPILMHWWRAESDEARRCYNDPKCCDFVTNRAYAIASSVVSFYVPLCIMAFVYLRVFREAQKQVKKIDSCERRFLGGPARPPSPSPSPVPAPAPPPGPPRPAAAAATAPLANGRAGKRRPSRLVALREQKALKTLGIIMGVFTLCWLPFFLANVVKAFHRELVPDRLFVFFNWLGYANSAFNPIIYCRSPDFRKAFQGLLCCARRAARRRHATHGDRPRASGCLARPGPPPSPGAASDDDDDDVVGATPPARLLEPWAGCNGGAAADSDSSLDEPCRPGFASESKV

On to `NC[C@H](O)c1ccc(O)c(O)c1` [Norepinephrine, reference compound], for which the Emax in data set [1] (Table 3) was 100%. The “α1A receptor I.A.” value in data set [1] (Table 4) is reported as 100%.

Take `CS(=O)(=O)Nc1cc([C@@H](O)CNCCOc2ccc3c(OC(F)F)n[nH]c3c2)ccc1Cl` [Example 9, (R)—N-(2-Chloro-5-(2-(2-(3-(difluoromethoxy)-indazol-6-yloxy)ethylamino)-1-hydroxyethyl)phenyl)methanesulfonamide]: the Emax in data set [1] (Table 4) came out at 5%; in data set [2] it was 51%; in data set [3], 30%; in data set [4], 1%. In addition, the pEC50 in data set [2] (Table 4, Test example 1-B) was 7.25.

Turning to `CS(=O)(=O)Nc1cc([C@@H](O)CNCCOc2ccc3c(C4CCC4)n[nH]c3c2)ccc1Cl` [Example 8, (R)—N-(2-Chloro-5-(2-(2-(3-cyclobutylindazol-6-yloxy)ethylamino)-1-hydroxyethyl)phenyl)methanesulfonamide], the Emax stood at 0% in data set [1] (Table 4), 70% in data set [2], 34% in data set [3] and 10% in data set [4]. The same compound had a pEC50 in data set [2] (Table 4, Test example 1-B) of 7.54.

Turning to `COC(C)c1n[nH]c2cc(OCCNC[C@H](O)c3cccc(NS(C)(=O)=O)c3)ccc12` (stereo partly drawn) [Example 3, N-(3-((R)-1-Hydroxy-2-(2-(3-(1-methoxyethyl)-indazol-6-yloxy)ethylamino)ethyl)phenyl)methanesulfonamide], the Emax in data set [1] (Table 4) came out at 15%; in data set [2], 60%; in data set [3], 4%; in data set [4] it was 5%. In data set [2] (Table 4, Test example 1-B), this compound showed a pEC50 of 7.35. Besides, the “increase in MBP (%)” value in data set [5] is listed as 2.3 ± 0.9%.

Consider `CS(=O)(=O)Nc1cc([C@@H](O)CNCCOc2ccc3c(C4CC4)n[nH]c3c2)ccc1Cl` [Example 5, (R)—N-(2-Chloro-5-(2-(2-(3-cyclopropylindazol-6-yloxy)ethylamino)-1-hydroxyethyl)phenyl)methanesulfonamide], for which the Emax in data set [1] (Table 4) came out at 0%; in data set [2], 59%; in data set [3], 23%; in data set [4], 9%. The pEC50 in data set [2] (Table 4, Test example 1-B) is 7.72.

With `CC(C)NCC(O)c1ccc(O)c(O)c1` (centres unmarked) [isoproterenol, reference compound], the “β3 receptor I.A.” value was found to be 100% in data set [6] and 100% in data set [2] (Table 4, Test example 1-B, maximum response to isoproterenol taken as 100%). For the same compound, in data set [7] (10^−4 M), the “relaxant activity (%) 10^−4 M” value came to 66.2%. The “relaxant activity (%) 10^−5 M” value in data set [7] (10^−5 M) amounted to 60.9%.

For `CS(=O)(=O)Nc1cc([C@@H](O)CNCCOc2ccc3c(C4CCC4)n[nH]c3c2)ccc1F` [Example 6, (R)—N-(5-(2-(2-(3-Cyclobutylindazol-6-yloxy)ethylamino)-1-hydroxyethyl)-2-fluorophenyl)methanesulfonamide], the values for the Emax in data set [1] (Table 4) and in data set [2] were 0% and 41%, respectively. Further, the pEC50 in data set [2] (Table 4, Test example 1-B) is 7.27.

Consider `CS(=O)(=O)Nc1cc([C@@H](O)CNCCOc2ccc3c(C4CC4)n[nH]c3c2)ccc1F` [Example 4, (R)—N-(5-(2-(2-(3-Cyclopropylindazol-6-yloxy)ethylamino)-1-hydroxyethyl)-2-fluorophenyl)methanesulfonamide], for which the Emax came to 0% in data set [1] (Table 4), 52% in data set [2], 9% in data set [3] and 8% in data set [4]. The compound also had a pEC50 in data set [2] (Table 4, Test example 1-B) of 7.62.

`CS(=O)(=O)Nc1cc([C@@H](O)CNCCOc2ccc3c(OC(F)F)n[nH]c3c2)ccc1F` [Example 7, (R)—N-(5-(2-(2-(3-(Difluoromethoxy)-indazol-6-yloxy)ethylamino)-1-hydroxyethyl)-2-fluorophenyl)methanesulfonamide]: the Emax in data set [1] (Table 4) is 5%; in data set [2], 51%. Moreover, the pEC50 in data set [2] (Table 4, Test example 1-B) was 6.23.

For orientation: pEC50 means −log10 of the EC50, conventionally taken in molar units. A lower pEC50 goes with a high EC50.
